The first experiment has as its system Lox-IMVI melanoma cell line. The experiment is described as follows: Lox-IMVI anti-proliferative assay (growth inhibition, Cell Titer-Glo). The format is cell-based, human. Particulars: Homo sapiens; IC50 activity level in the cell-based Lox-IMVI anti-proliferative assay; read-out: Activity. An outline of the steps:
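Growth inhibition is assessed over 72 h in RPMI + 10% FBS at 0.2% DMSO, with ATP-based luminescence used as the viability measure. IC50 is fitted from normalized dose-response data.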
Background: In ATP-based viability assays light output follows the ATP content of the culture.
For the compound `NC(=O)[C@H]1CC[C@@H](n2c(Nc3c(F)cccc3Cl)nc3cnc(N[C@@H]4CC[C@@H](O)C4)nc32)CC1` [Example 208, (1S,4s)-4-(8-(2-chloro-6-fluorophenylamino)-2-((1R,3R)-3-hydroxycyclopentylamino)-9H-purin-9-yl)cyclohexanecarboxamide], the IC50 is above 1000 nM.
Still for that read-out and setting: the figure for `CC[C@@H](CO)Nc1ncc2nc(Nc3c(F)ccc(F)c3F)n([C@H]3CC[C@@H](C(N)=O)CC3)c2n1` [Example 148, (1R,4s)-4-(2-((S)-1-hydroxybutan-2-ylamino)-8-(2,3,6-trifluorophenylamino)-9H-purin-9-yl)cyclohexanecarboxamide] is above 1000 nM.
As for `NC(=O)[C@H]1CC[C@@H](n2c(Nc3c(F)cc(Cl)cc3F)nc3cnc(NC4CCC(F)(F)CC4)nc32)CC1` [Example 200, (1s,4s)-4-(8-(4-chloro-2,6-difluorophenylamino)-2-(4,4-difluorocyclohexylamino)-9H-purin-9-yl)cyclohexanecarboxamide], the IC50 lay in the range of 250 to 500 nM.
On the same count and under the same terms, in the case of `C[C@H](CO)Nc1ncc2nc(Nc3c(F)cc(Cl)cc3F)n([C@H]3CC[C@@H](C(N)=O)CC3)c2n1` [Example 132, (1S,4s)-4-(8-(4-chloro-2,6-difluorophenylamino)-2-((R)-1-hydroxypropan-2-ylamino)-9H-purin-9-yl)cyclohexanecarboxamide] it was above 1000 nM; in that of `CC[C@H](C)Nc1ncc2nc(Nc3c(F)cccc3Cl)n([C@H]3CC[C@@H](C(N)=O)CC3)c2n1` [Example 337, (1R,4s)-4-(2-(sec-butylamino)-8-(2-chloro-6-fluorophenylamino)-9H-purin-9-yl)cyclohexanecarboxamide], above 1000 nM; in that of `NC(=O)[C@H]1CC[C@@H](n2c(Nc3c(F)cc(Cl)cc3Cl)nc3cnc(N[C@@H]4CCC[C@H](O)C4)nc32)CC1` [Example 361, (1S,4s)-4-(8-(2,4-dichloro-6-fluorophenylamino)-2-((1R,3S)-3-hydroxycyclohexylamino)-9H-purin-9-yl)cyclohexanecarboxamide], below 250 nM.
On the same count and under the same terms, in the case of `NC(=O)[C@H]1CC[C@@H](n2c(Nc3c(Cl)cccc3Cl)nc3cnc(N[C@@H]4CC[C@@H](O)C4)nc32)CC1` [Example 211, (1S,4s)-4-(8-(2,6-dichlorophenylamino)-2-((1R,3R)-3-hydroxycyclopentylamino)-9H-purin-9-yl)cyclohexanecarboxamide] it was above 1000 nM; in that of `NC(=O)[C@H]1CC[C@@H](n2c(Nc3ccc(Cl)cc3Cl)nc3cnc(NC4CCCC4)nc32)CC1` [Example 94, (1s,4s)-4-(2-(cyclopentylamino)-8-(2,4-dichlorophenylamino)-9H-purin-9-yl)cyclohexanecarboxamide], above 1000 nM; in that of `NC(=O)[C@H]1CC[C@@H](n2c(Nc3c(Cl)cccc3Cl)nc3cnc(NC4COC4)nc32)CC1` [Example 56, (1s,4s)-4-(8-(2,6-dichlorophenylamino)-2-(oxetan-3-ylamino)-9H-purin-9-yl)cyclohexanecarboxamide], above 1000 nM.
Still for that read-out and setting: in the case of `C[C@@H](CO)Nc1ncc2nc(Nc3c(F)cc(Cl)cc3Cl)n([C@H]3CC[C@@H](C(N)=O)CC3)c2n1` [Example 135, (1R,4s)-4-(8-(2,4-dichloro-6-fluorophenylamino)-2-((S)-1-hydroxypropan-2-ylamino)-9H-purin-9-yl)cyclohexanecarboxamide] it was below 250 nM.
With `NC(=O)[C@H]1CC[C@@H](n2c(Nc3ccc(Cl)c(F)c3F)nc3cnc(N[C@@H]4CC[C@@H](O)C4)nc32)CC1` [Example 216, (1S,4s)-4-(8-(4-chloro-2,3-difluorophenylamino)-2-((1R,3R)-3-hydroxycyclopentylamino)-9H-purin-9-yl)cyclohexanecarboxamide], the IC50 was above 1000 nM.
Regarding `NC(=O)[C@H]1CC[C@@H](n2c(Nc3c(F)ccc(F)c3Cl)nc3cnc(NC4CCOCC4)nc32)CC1` [Example 90, (1s,4s)-4-(8-(2-chloro-3,6-difluorophenylamino)-2-(tetrahydro-2H-pyran-4-ylamino)-9H-purin-9-yl)cyclohexanecarboxamide], the IC50 lay in the range of 250 to 500 nM.

The same experiment, now with this note: Homo sapiens; Lox-IMVI anti-proliferative assay, IC50 activity level; read-out: Activity.
As for `C[C@@H](CO)Nc1ncc2nc(Nc3c(F)cc(C#N)cc3Cl)n([C@H]3CC[C@@](C)(C(N)=O)CC3)c2n1` [Example 552, (1R,4s)-4-(8-(2-chloro-4-cyano-6-fluorophenylamino)-2-((S)-1-hydroxypropan-2-ylamino)-9H-purin-9-yl)-1-methylcyclohexanecarboxamide], the IC50 was below 250 nM.
Still for that read-out and setting: the figure for `NC(=O)[C@H]1CC[C@@H](n2c(Nc3c(Cl)cc(Cl)cc3Cl)nc3cnc(N[C@H]4CCC(F)(F)C4)nc32)CC1` [Example 594, (1R,4s)-4-(2-((S)-3,3-difluorocyclopentylamino)-8-(2,4,6-trichlorophenylamino)-9H-purin-9-yl)cyclohexanecarboxamide] is 250 to 500 nM.
On the same count and under the same terms, the figure for `N#Cc1cc(Cl)c(Nc2nc3cnc(NC4CCCOCC4)nc3n2[C@H]2CC[C@@H](C(N)=O)CC2)c(Cl)c1` (stereo partly drawn) [Example 555, (1s,4s)-4-(8-(2,6-dichloro-4-cyanophenylamino)-2-(oxepan-4-ylamino)-9H-purin-9-yl)cyclohexanecarboxamide] is below 250 nM; for `NC(=O)[C@H]1CC[C@@H](n2c(Nc3c(Cl)cc(Cl)cc3Cl)nc3cnc(N[C@H]4CCCC[C@H]4O)nc32)CC1` [Example 514, (1R,4s)-4-(2-((1S,2R)-2-hydroxycyclohexylamino)-8-(2,4,6-trichlorophenylamino)-9H-purin-9-yl)cyclohexanecarboxamide] it is above 1000 nM; for `C[C@]1(C(N)=O)CC[C@@H](n2c(Nc3c(Cl)cc(C(F)(F)F)cc3Cl)nc3cnc(NC4CC(F)(F)C4)nc32)CC1` [Example 584, (1s,4s)-4-(8-(2,6-dichloro-4-(trifluoromethyl)phenylamino)-2-(3,3-difluorocyclobutylamino)-9H-purin-9-yl)-1-methylcyclohexanecarboxamide] it is above 1000 nM.
Same read-out and setting: the figure for `NC(=O)[C@H]1CC[C@@H](n2c(Nc3c(F)cc(F)cc3Cl)nc3cnc(N[C@@H]4CCCC[C@H](O)C4)nc32)CC1` [Example 437, (1S,4s)-4-(8-(2-chloro-4,6-difluorophenylamino)-2-((1R,3S)-3-hydroxycycloheptylamino)-9H-purin-9-yl)cyclohexanecarboxamide] is above 1000 nM; for `C[C@@H]1COCC[C@@H]1Nc1ncc2nc(Nc3c(Cl)cc(Cl)cc3Cl)n([C@H]3CC[C@@H](C(N)=O)CC3)c2n1` [Example 502, (1R,4s)-4-(2-((3S,4S)-3-methyltetrahydro-2H-pyran-4-ylamino)-8-(2,4,6-trichlorophenylamino)-9H-purin-9-yl)cyclohexanecarboxamide] it is 250 to 500 nM.
Consider `COC(=O)N1CCCC(Nc2ncc3nc(Nc4c(Cl)cccc4Cl)n([C@H]4CC[C@@H](C(N)=O)CC4)c3n2)C1` (stereo partly drawn) [Example 405, (R)-methyl 3-(9-((1s,4S)-4-carbamoylcyclohexyl)-8-(2,6-dichlorophenylamino)-9H-purin-2-ylamino)piperidine-1-carboxylate], for which the IC50 was above 1000 nM.

Still in this experiment, the particulars now being: Homo sapiens; Lox-IMVI melanoma cell line, anti-proliferative assay; read-out: Activity (IC50 activity level).
For the compound `CS(=O)(=O)N1CCC[C@@H](Nc2ncc3nc(Nc4c(F)cc(Cl)cc4F)n([C@H]4CC[C@@H](C(N)=O)CC4)c3n2)C1` [Example 703, (1S,4s)-4-(8-(4-chloro-2,6-difluorophenylamino)-2-((R)-1-(methylsulfonyl)piperidin-3-ylamino)-9H-purin-9-yl)cyclohexanecarboxamide], the IC50 was above 1000 nM.
Still for that read-out and setting: in the case of `C[C@]1(C(N)=O)CC[C@@H](n2c(Nc3c(F)cc(Cl)cc3F)nc3cnc(N[C@H]4CC[C@H](O)C4)nc32)CC1` [Example 648, (1R,4s)-4-(8-(4-chloro-2,6-difluorophenylamino)-2-((1S,3S)-3-hydroxycyclopentylamino)-9H-purin-9-yl)-1-methylcyclohexanecarboxamide] it was above 1000 nM; in that of `CC(C)N1CCC[C@@H](Nc2ncc3nc(Nc4c(Cl)cc(C#N)cc4Cl)n([C@H]4CC[C@@H](C(N)=O)CC4)c3n2)C1` [Example 739, (1S,4s)-4-(8-(2,6-dichloro-4-cyanophenylamino)-2-((R)-1-isopropylpiperidin-3-ylamino)-9H-purin-9-yl)cyclohexanecarboxamide], above 1000 nM.
Turning to `NC(=O)[C@H]1CC[C@@H](n2c(Nc3c(F)cc(Cl)cc3Cl)nc3cnc(NC4CCC(N5C(=O)CCC5=O)CC4)nc32)CC1` (stereo partly drawn) [Example 667, (1s,4s)-4-(8-(2,4-dichloro-6-fluorophenylamino)-2-(4-(2,5-dioxopyrrolidin-1-yl)cyclohexylamino)-9H-purin-9-yl)cyclohexanecarboxamide], the IC50 is above 1000 nM.
Regarding `NC(=O)[C@H]1CC[C@@H](n2c(Nc3c(F)cc(F)cc3Cl)nc3cnc(N[C@@H]4CCOC[C@H]4F)nc32)CC1` [Example 630, (1S,4s)-4-(8-(2-chloro-4,6-difluorophenylamino)-2-((3S,4R)-3-fluorotetrahydro-2H-pyran-4-ylamino)-9H-purin-9-yl)cyclohexanecarboxamide], the IC50 was below 250 nM.
On the same count and under the same terms, the figure for `CC(C)OC(=O)N1CCC[C@@H](Nc2ncc3nc(Nc4c(F)cc(Cl)cc4Cl)n([C@H]4CC[C@@H](C(N)=O)CC4)c3n2)C1` [Example 774, (R)-isopropyl 3-(9-((1s,4S)-4-carbamoylcyclohexyl)-8-(2,4-dichloro-6-fluorophenylamino)-9H-purin-2-ylamino)piperidine-1-carboxylate] is 250 to 500 nM.
On to `NC(=O)[C@H]1CC[C@@H](n2c(Nc3c(Cl)cc(F)cc3Cl)nc3cnc(N[C@@H]4CCCN(Cc5ccccc5)C4)nc32)CC1` [Example 759, (1S,4s)-4-(2-((R)-1-benzylpiperidin-3-ylamino)-8-(2,6-dichloro-4-fluorophenylamino)-9H-purin-9-yl)cyclohexanecarboxamide], for which the IC50 was above 1000 nM.

Values taken from patent US11590139B2, “Substituted aminopurine compounds, compositions thereof, and methods of treatment therewith” (Signal Pharmaceuticals, LLC, priority 2014, dated 2023).
